# Assay results as given in US12257251B2, “Use of FAK inhibitor in preparation of drug for treating tumors having NRAS mutation” (INXMED (NANJING) CO., LTD., priority 2019, dated 2025).
# System: human esophageal cancer cell line KYSE-270
# Test: Subcutaneous xenograft of human esophageal cancer cell line KYSE-270 in NMRI nude mice: tumor growth
# Format: in vivo, mouse
# Details: for Tumor shrinkage [x/y]: BI853520 50 mg/Kg qd
# Method: 1.1. Model: Subcutaneous xenograft of human esophageal cancer cell line KYSE-270 in NMRI nude mice.
# 1.3. Cells: KYSE-270 is an esophageal cancer cell line (Public Health England, catalog number: 94072021). Cells were cultured in T175 tissue culture flasks containing 5% CO2 at 37° C. The medium was RPMI 1640+HAM F12 (1:1) supplemented with 2% FCS and 2 mM Glutamax. Passage was performed three times a week at a ratio of 1:2.
# 1.4. Mice: Mice were 8 to 10 week old female mice (BomTac: NMRI-Foxn1^nu) purchased from Taconic®, Denmark. Upon arrival in the animal room, the mice were allowed to acclimate for at least 5 days before being used for assay. The animals were housed under standard conditions (temperature: 21.5±1.5° C., humidity: 55+10%), 7 to 10 mice for each group. A standard diet and autoclaved tap water were provided for ad libitum feeding. A subcutaneous microchip implanted under isoflurane anesthesia was used to identify each mouse.
# 1.5. Random establishment of tumors: To establish subcutaneous tumors, KYSE-270 cells were harvested by centrifugation, washed and resuspended in PBS+5% FCS at a concentration of 5×10^7 cells/ml. Then 100 l of cell suspension containing 5×10^6 cells was injected subcutaneously into the right flank of mice (1 site per mouse). When tumors were well established and reached a volume of 94 to 252 mm^3, mice were randomly assigned to the treatment group and the control group (13 days after cell injection).
# 1.6. Administration: BI 853520 was suspended in 0.5% hydroxyethyl cellulose, which was administered intragastrically through gavage needle every day, and the dosage was 10 mL/Kg body weight. Paclitaxel was dissolved in saline (0.9% NaCl), which was administered intravenously in a volume of 10 ml/kg body weight. The suspension of BI853520 could be used for up to 7 days. Paclitaxel solution was stored at 6° C. and used for up to 14 days.
# 1.7. Monitoring tumor growth and side effects: Tumor diameters were measured with calipers three times a week. The volume [mm^3] of each tumor was calculated according to the equation “tumor volume=length×diameter^2×π/6”. To monitor the side effects of the treatment, the mice were checked daily for abnormalities and their body weights were measured three times a week. For ethical reasons, animals with tumors larger than 1.5 cm in diameter, ulcerated tumors, or 20% body weight loss were euthanized.
# Statistical assessment of tumor volume and body weight on day 13 was performed. Animal number 1 (control group) was excluded from the statistical evaluation because of weight loss and had to be euthanized early (day 9). Measured tumor volume was used as the target variable in the statistical analysis. The number of animals and the median, minimum and maximum tumor volumes in each group were calculated. For a quick overview of possible treatment effects, the median tumor volume for each treatment group T and the median tumor volume for the control group C were used to calculate TGI: TGI=100×[(Cd−C1)−(Td−T1)]/(Cd−C1) • wherein, C1, T1=median tumor volume in control and treatment groups at the start of the assay (day 1). • Cd, Td=median tumor volume in control and treatment groups at the end of the assay (day 13).
# The wilcoxon test was used for comparison. For body weight, the percent change relative to initial body weight on day 1 was used as the target variable for statistical analysis. The number of animals, and the median, minimum and maximum weight changes in each group were calculated.
# One-sided test to compare all treatment groups with control group was performed for observing: • reduction in tumor volume (inhibition of tumor growth, efficacy parameter) and • reduction in weight changes (weight loss, tolerance parameters).
# Within each subtopic, p-values for the efficacy parameter were compared and adjusted for multiple times according to Bonferroni-Holm. The p-value for the tolerance parameter was kept constant so as not to overlook possible side effects. […]
smiles,measurement,setting,value
COc1cc(C(=O)NC2CCN(C)CC2)c(F)cc1Nc1ncc(C(F)(F)F)c(Oc2cccc3c2C(=O)N(C)C3)n1 [BI853520],TGI,"BI853520 50 mg/Kg qd p.o., day 13",106%
same,Tumor shrinkage [x/y],"day 13, 50 mg/kg",6/7
same,Tumor shrinkage [x/y],"day 13, listed as BI 853520, 50 mg/kg",6 of 7
same,Inhibition of tumor growth (in words),BI 853520 50 mg/kg,statistically significant inhibition of tumor growth
same,Median tumor volume,"BI 853520 50 mg/kg per day, day 13 (start 175 mm^3)",126 mm^3
